Counter-ions that a name gives are not always drawn.
Target: T1, SYK (Homo sapiens, UniProt P43405)
T1 construct: Recombinant proteins SYK FL was produced at NMS via baculo virus infection in insect cells; His; GST; made in house; host or cells: insect cells (baculovirus)
Experiment: Biochemical kinase inhibition assay on SYK, KinaseGlo assay format
Conditions: Table A; KinaseGlo format, pre-activated SYK 2.5 nM, ATP 2.5 μM, substrate BioDBn*327 125 uM, 60 minutes at rt; read-out: IC50 (μM) Kglo

SMILES	IC50 [µM]
Cc1cc(C)cc(Nc2nccc(-c3cc(C(=O)NC(C)C)n(C)n3)n2)c1 [Example 4, 3-{2-[(3,5-dimethylphenyl)amino]pyrimidin-4-yl}-1-methyl-N-(propan-2-yl)-1H-pyrazole-5-carboxamide]	0.111
Cc1cc(C)cc(Nc2nccc(-c3cc(C(=O)NC4CNC4)n(C)n3)n2)c1 [Example 8, N-(azetidin-3-yl)-3-{2-[(3,5-dimethylphenyl)amino]pyrimidin-4-yl}-1-methyl-1H-pyrazole-5-carboxamide trifluoroacetate]	0.282
Cc1cc(C)cc(Nc2nccc(-c3cc(C(=O)NCCN4CCOCC4)n(C)n3)n2)c1 [Example 9, 3-{2-[(3,5-dimethylphenyl)amino]pyrimidin-4-yl}-1-methyl-N-[2-(morpholin-4-yl)ethyl]-1H-pyrazole-5-carboxamide]	0.398
Cc1cc(C)cc(Nc2nccc(-c3cc(C(=O)NCCNC(C)C)n(C)n3)n2)c1 [Example 12, 3-{2-[(3,5-dimethylphenyl)amino]pyrimidin-4-yl}-1-methyl-N-[2-(propan-2-ylamino)ethyl]-1H-pyrazole-5-carboxamide hydrochloride]	0.398
Cc1cc(C)cc(Nc2nccc(-c3cc(C(N)=O)n(C)n3)n2)c1 [Example 13, 3-{2-[(3,5-dimethylphenyl)amino]pyrimidin-4-yl}-1-methyl-1H-pyrazole-5-carboxamide]	0.226
Cc1cc(C)cc(Nc2nccc(-c3cc(C(=O)N(C)C)n(C)n3)n2)c1 [Example 15, 3-{2-[(3,5-dimethylphenyl)amino]pyrimidin-4-yl}-N,N,1-trimethyl-1H-pyrazole-5-carboxamide]	0.358
COCCNC(=O)c1cc(-c2ccnc(Nc3cc(C)cc(C)c3)n2)nn1C [Example 16, 3-{2-[(3,5-dimethylphenyl)amino]pyrimidin-4-yl}-N-(2-methoxyethyl)-1-methyl-1H-pyrazole-5-carboxamide]	0.272
CN(C)CCNC(=O)c1cc(-c2ccnc(Nc3cc(C(F)(F)F)cc(C(F)(F)F)c3)n2)nn1C [Example 18, 3-(2-{[3,5-bis(trifluoromethyl)phenyl]amino}pyrimidin-4-yl)-N-[2-(dimethylamino)ethyl]-1-methyl-1H-pyrazole-5-carboxamide hydrochloride]	0.491
Cc1cc(C)cc(Nc2nccc(-c3cc(C(=O)Nc4cc[nH]n4)n(C)n3)n2)c1 [Example 20, 3-{2-[(3,5-dimethylphenyl)amino]pyrimidin-4-yl}-1-methyl-N-(1H-pyrazol-3-yl)-1H-pyrazole-5-carboxamide]	0.109
Cc1cc(C)cc(Nc2nccc(-c3cc(C(=O)N4CCN(C)CC4)n(C)n3)n2)c1 [Example 21, (3-{2-[(3,5-dimethylphenyl)amino]pyrimidin-4-yl}-1-methyl-1H-pyrazol-5-yl)(4-methylpiperazin-1-yl)methanone]	0.238
Cc1cc(C)cc(Nc2nccc(-c3cc(C(=O)NCc4cncn4C)n(C)n3)n2)c1 [Example 25, 3-{2-[(3,5-dimethylphenyl)amino]pyrimidin-4-yl}-1-methyl-N-[(1-methyl-1H-imidazol-5-yl)methyl]-1H-pyrazole-5-carboxamide]	0.249
Cc1cc(C)cc(Nc2nccc(-c3cc(C(=O)NC4CN5CCC4CC5)n(C)n3)n2)c1 (stereo not drawn) [Example 31, N-(1-azabicyclo[2.2.2]oct-3-yl)-3-{2-[(3,5-dimethylphenyl)amino]pyrimidin-4-yl}-1-methyl-1H-pyrazole-5-carboxamide]	0.139
Cc1cc(C)cc(Nc2nccc(-c3cc(C(=O)N4CCNCC4)n(C)n3)n2)c1 [Example 36, (3-{2-[(3,5-dimethylphenyl)amino]pyrimidin-4-yl}-1-methyl-1H-pyrazol-5-yl)(piperazin-1-yl)methanone hydrochloride]	0.169
Cc1cc(C)cc(Nc2nccc(-c3cc(C(=O)N[C@@H](C)C(F)(F)F)n(C)n3)n2)c1 [Example 42, 3-{2-[(3,5-dimethylphenyl)amino]pyrimidin-4-yl}-1-methyl-N-[(2S)-1,1,1-trifluoropropan-2-yl]-1H-pyrazole-5-carboxamide]	0.474
CC[C@H](NC(=O)c1cc(-c2ccnc(Nc3cc(C)cc(C)c3)n2)nn1C)C(F)(F)F [Example 55, 3-{2-[(3,5-dimethylphenyl)amino]pyrimidin-4-yl}-1-methyl-N-[(2S)-1,1,1-trifluorobutan-2-yl]-1H-pyrazole-5-carboxamide]	0.324
COc1cc(Nc2nccc(-c3cc(C(=O)N[C@@H](C)C(=O)N(C)C)n(C)n3)n2)cc(OC)c1 [Example 71, 3-{2-[(3,5-dimethoxyphenyl)amino]pyrimidin-4-yl}-N-[(2S)-1-(dimethylamino)-1-oxopropan-2-yl]-1-methyl-1H-pyrazole-5-carboxamide]	0.452
Cc1cc(C)cc(Nc2nccc(-c3cc(C(=O)N4CC[C@@H](O)C4)n(C)n3)n2)c1 [Example 85, (3-{2-[(3,5-dimethylphenyl)amino]pyrimidin-4-yl}-1-methyl-1H-pyrazol-5-yl)[(3R)-3-hydroxypyrrolidin-1-yl]methanone]	0.209

Stronger by IC50, values ahead:

IC50 [µM]	SMILES
0.084	Cc1cc(C)cc(Nc2nccc(-c3cc(C(=O)N(C)CCN(C)C)n(C)n3)n2)c1 [Example 5, N-[2-(dimethylamino)ethyl]-3-{2-[(3,5-dimethylphenyl)amino]pyrimidin-4-yl}-N,1-dimethyl-1H-pyrazole-5-carboxamide]
0.06	Cc1cc(C)cc(Nc2nccc(-c3cc(C(=O)NCCF)n(C)n3)n2)c1 [Example 17, 3-{2-[(3,5-dimethylphenyl)amino]pyrimidin-4-yl}-N-(2-fluoroethyl)-1-methyl-1H-pyrazole-5-carboxamide]
0.104	C[C@@H](CO)NC(=O)c1cc(-c2ccnc(Nc3cc(C(F)(F)F)cc(C(F)(F)F)c3)n2)nn1C [Example 19, 3-(2-{[3,5-bis(trifluoromethyl)phenyl]amino}pyrimidin-4-yl)-N-[(2S)-1-hydroxypropan-2-yl]-1-methyl-1H-pyrazole-5-carboxamide]
0.074	Cc1cc(C)cc(Nc2nccc(-c3cc(C(=O)N[C@@H]4CCCC[C@H]4O)n(C)n3)n2)c1 [Example 32, 5-[2-(3,5-Dimethyl-phenylamino)-pyrimidin-4-yl]-2-methyl-2H-pyrazole-3-carboxylic acid ((1R,2R)-2-hydroxy-cyclohexyl)-amide]
0.009	COc1cc(Nc2nccc(-c3cc(C(=O)N[C@H]4CCCC[C@H]4N)n(C)n3)n2)cc(C(F)(F)F)c1 [Example 37, N-[(1S,2R)-2-aminocyclohexyl]-3-(2-{[3-methoxy-5-(trifluoromethyl)phenyl]amino}pyrimidin-4-yl)-1-methyl-1H-pyrazole-5-carboxamide hydrochloride]
0.005	Cn1nc(-c2ccnc(Nc3ccc4c(c3)c(Cl)cn4C)n2)cc1C(=O)N[C@H]1CCCC[C@H]1N [Example 38, N-[(1S,2R)-2-aminocyclohexyl]-3-{2-[(3-chloro-1-methyl-1H-indol-5-yl)amino]pyrimidin-4-yl}-1-methyl-1H-pyrazole-5-carboxamide hydrochloride]
0.077	Cc1cccc(Nc2nccc(-c3cc(C(=O)N[C@H](CO)C(C)C)n(C)n3)n2)c1 [Example 41, N-[(2S)-1-hydroxy-3-methylbutan-2-yl]-1-methyl-3-{2-[(3-methylphenyl)amino]pyrimidin-4-yl}-1H-pyrazole-5-carboxamide]
0.065	Cc1cc(C)cc(Nc2nccc(-c3cc(C(=O)NCC(C)(C)C)n(C)n3)n2)c1 [Example 45, 3-{2-[(3,5-dimethylphenyl)amino]pyrimidin-4-yl}-N-(2,2-dimethylpropyl)-1-methyl-1H-pyrazole-5-carboxamide]
0.049	Cc1cc(C)cc(Nc2nccc(-c3cc(C(=O)NCC(C)C)n(C)n3)n2)c1 [Example 46, 3-{2-[(3,5-dimethylphenyl)amino]pyrimidin-4-yl}-1-methyl-N-(2-methylpropyl)-1H-pyrazole-5-carboxamide]
0.04	Cc1cc(C)cc(Nc2nccc(-c3cc(C(=O)NCC4CC4)n(C)n3)n2)c1 [Example 47, N-(cyclopropylmethyl)-3-{2-[(3,5-dimethylphenyl)amino]pyrimidin-4-yl}-1-methyl-1H-pyrazole-5-carboxamide]
0.015	Cc1cccc(Nc2nccc(-c3cc(C(=O)N[C@H]4CCCC[C@@H]4N)n(C)n3)n2)c1 [Example 53, N-[(1S,2S)-2-aminocyclohexyl]-1-methyl-3-{2-[(3-methylphenyl)amino]pyrimidin-4-yl}-1H-pyrazole-5-carboxamide]
0.081	CC[C@@H](NC(=O)c1cc(-c2ccnc(Nc3cc(C)cc(C)c3)n2)nn1C)C(F)(F)F [Example 56, 3-{2-[(3,5-dimethylphenyl)amino]pyrimidin-4-yl}-1-methyl-N-[(2R)-1,1,1-trifluorobutan-2-yl]-1H-pyrazole-5-carboxamide]
0.059	COc1cc(Nc2nccc(-c3cc(C(=O)N[C@@H](C)CN4CCCC4)n(C)n3)n2)cc(OC)c1OC [Example 58, 1-methyl-N-[(2S)-1-(pyrrolidin-1-yl)propan-2-yl]-3-{2-[(3,4,5-trimethoxyphenyl)amino]pyrimidin-4-yl}-1H-pyrazole-5-carboxamide]
< 0.004	C[C@@H](CN1CCC1)NC(=O)c1cc(-c2ccnc(Nc3ccc4c(c3)c(Cl)cn4C)n2)nn1C [Example 59, N-[(2S)-1-(azetidin-1-yl)propan-2-yl]-3-{2-[(3-chloro-1-methyl-1H-indol-5-yl)amino]pyrimidin-4-yl}-1-methyl-1H-pyrazole-5-carboxamide]
0.004	CC(C)[C@@H](CN1CCC1)NC(=O)c1cc(-c2ccnc(Nc3cc(Cl)cc(Cl)c3)n2)nn1C [Example 61, N-[(2S)-1-(azetidin-1-yl)-3-methylbutan-2-yl]-3-{2-[(3,5-dichlorophenyl)amino]pyrimidin-4-yl}-1-methyl-1H-pyrazole-5-carboxamide]
0.032	COc1cccc(Nc2nccc(-c3cc(C(=O)N[C@@H](C)CN4CCCC4)n(C)n3)n2)c1 [Example 70, 3-{2-[(3-methoxyphenyl)amino]pyrimidin-4-yl}-1-methyl-N-[(2S)-1-(pyrrolidin-1-yl)propan-2-yl]-1H-pyrazole-5-carboxamide]
